# Test results from US9902710B2, “Substituted 6, 7-dialkoxy-3-isoquinoline derivatives as inhibitors of phosphodiesterase 10 (PDE 10A)” (Allergan, Inc., priority 2013, dated 2018).
# Counter-ions that a name gives are not always drawn.
# Target: PDE10A
# Experiment: Diaxonhit phosphodiesterase assay (TR-FRET, LANCE cAMP kit), PDE10A
# Assay type: biochemical
# Experimental: Diaxonhit Phosphodiesterase Assay (PDE10A and PDE4D3)
# The PDE assay is based on the homogenous time-resolved fluorescence resonance energy transfer (TR-FRET) technology (LANCE® from Perkin Elmer). […] When there is PDE activity, resulting in the degradation of the cyclic nucleotide, the complex is not formed and a decrease in signal is observed.
# The phosphodiesterase assay was developed using the LANCE® cAMP kit (PerkinElmer). The assay buffer contained HBSS with 5 mM HEPES, 0.1% BSA, and 1.5 mM MgCl2, pH 7.4. […] Chemical compounds were dissolved in DMSO (final concentration 2% (v/v)).
# In a 384-well plate, 2 μL of the inhibitor and 3 μL PDE were added to the well, followed by the addition of 5 μl substrate biotinylated cAMP (1:5). After 60 min incubation at room temperature, 10 μL of assay detection mixture was added to the assay plate. After 1 h at room temperature, the signal was measured on EnVision™ (PerkinElmer).
row,Compound,IC50 [nM]
1,"COc1cc2cncc(Cc3ccc4sccc4c3)c2cc1OC [Compound 3, 4-(benzo[b]thiophen-5-ylmethyl)-6,7-dimethoxyisoquinoline hydrochloride]",100
2,"COc1cc2cncc(Cc3ccc4cccc(OC)c4n3)c2cc1OC [Compound 21, 2-((6,7-dimethoxyisoquinolin-4-yl)methyl)-8-methoxyquinoline dihydrochloride]",46
3,"CCCc1ncc(Cc2ccc3nc(C)ccc3c2)c2cc(OC)c(OC)cc12 [Compound 57, 6-((6,7-dimethoxy-1-propylisoquinolin-4-yl)methyl)-2-methylquinoline dihydrochloride]",20
4,"CCCc1ncc(Cc2cc3cc(OC)ccc3nc2NCCNC(C)=O)c2cc(OC)c(OC)cc12 [Compound 76, N-(2-((3-((6,7-dimethoxy-1-propylisoquinolin-4-yl)methyl)-6-methoxyquinolin-2-yl)amino)ethyl)acetamide dihydrochloride]",11
5,"CCOC(=O)C(=O)Nc1cccc2ccc(Cc3cnc(CC)c4cc(OC)c(OC)cc34)nc12 [Compound 92, ethyl 2-((2-((1-ethyl-6,7-dimethoxyisoquinolin-4-yl)methyl)quinolin-8-yl)amino)-2-oxoacetate]",495
6,"CCc1ncc(Cc2ccc3cccc(CNS(N)(=O)=O)c3n2)c2cc(OC)c(OC)cc12 [Compound 94, N-((2-((1-ethyl-6,7-dimethoxyisoquinolin-4-yl)methyl)quinolin-8-yl)methyl)sulfamide]",13
7,"CCc1ncc(Cc2cnc3ccc(N(C)S(C)(=O)=O)cc3c2)c2cc(OC)c(OC)cc12 [Compound 101, N-(3-((1-ethyl-6,7-dimethoxyisoquinolin-4-yl)methyl)quinolin-6-yl)-N-methylmethanesulfonamide]",43
8,"COC(=O)c1ccc(-c2nc3cc(Cc4cncc5cc(OC)c(OC)cc45)ccc3o2)cc1 [Compound 115, methyl 4-(5-((6,7-dimethoxyisoquinolin-4-yl)methyl)benzo[d]oxazol-2-yl)benzoate]",61
9,"CCCc1ncc(Cc2ccc3cccc(OCC(=O)NC4CC4)c3n2)c2cc(OC)c(OC)cc12 [Compound 126, N-cyclopropyl-2-((2-((6,7-dimethoxy-1-propylisoquinolin-4-yl)methyl)quinolin-8-yl)oxy)acetamide]",71
10,"CCOC(=O)COc1cccc2ccc(Cc3cnc(CC)c4cc(OC)c(OC)cc34)nc12 [Compound 128, ethyl 2-((2-((1-ethyl-6,7-dimethoxyisoquinolin-4-yl)methyl)quinolin-8-yl)oxy)acetate]",59
11,"CCCc1ncc(Cc2cc3cc(OC)ccc3nc2NC)c2cc(OC)c(OC)cc12 [Compound 129, 3-((6,7-dimethoxy-1-propylisoquinolin-4-yl)methyl)-6-methoxy-N-methylquinolin-2-amine]",9.5
12,"CCCc1ncc(Cc2cnc3ccc(OCC(N)=O)cc3c2)c2cc(OC)c(OC)cc12 [Compound 144, 2-((3-((6,7-dimethoxy-1-propylisoquinolin-4-yl)methyl)quinolin-6-yl)oxy)acetamide]",6.5
13,"CCCc1ncc(Cc2ccc3oc(=O)n(CC(N)=O)c3c2)c2cc(OC)c(OC)cc12 [Compound 148, 2-(5-((6,7-dimethoxy-1-propylisoquinolin-4-yl)methyl)-2-oxobenzo[d]oxazol-3(2H)-yl)acetamide]",87
14,"COc1cc2cncc(Cc3cnc4ccc(O)c(C(F)(F)F)c4c3)c2cc1OC [Compound 161, 3-((6,7-dimethoxyisoquinolin-4-yl)methyl)-5-(trifluoromethyl)quinolin-6-ol]",6
15,"CCCc1ncc(Cc2cnc3ccc(OP(=O)(O)O)cc3c2)c2cc(OC)c(OC)cc12 [Compound 171, sodium 3-((6,7-dimethoxy-1-propylisoquinolin-4-yl)methyl)quinolin-6-yl phosphate]",62

# Further molecules by falling IC50, results first:
row,IC50 [nM],Compound
1,151,"CCCc1ncc(Cc2cc3cc(C)ccc3nc2O)c2cc(OC)c(OC)cc12 [Compound 54, 3-((6,7-dimethoxy-1-propylisoquinolin-4-yl)methyl)-6-methylquinolin-2-ol dihydrochloride]"
2,63,"CCCc1ncc(Cc2cc3cc(OC)ccc3nc2O)c2cc(OC)c(OC)cc12 [Compound 49, 3-((6,7-dimethoxy-1-propylisoquinolin-4-yl)methyl)-6-methoxyquinolin-2-ol dihydrochloride]"
3,49,"COc1cc2c(Cc3cnc4ccccc4c3)cnc(C)c2cc1OC [Compound 26, 3-((6,7-dimethoxy-1-methylisoquinolin-4-yl)methyl)quinoline dihydrochloride]"
4,42,"COc1cc2cncc(Cc3ccc4cccc(OCCO)c4n3)c2cc1OC [Compound 42, 2-((2-((6,7-dimethoxyisoquinolin-4-yl)methyl)quinolin-8-yl)oxy)ethanol dihydrochloride]"
5,39,"COc1cc2cnc(C)c(Cc3cnc4ccccc4c3)c2cc1OC [Compound 43, 3-((6,7-dimethoxy-3-methylisoquinolin-4-yl)methyl)quinoline dihydrocloride]"
6,32,"CCNc1nc2ccc(OC)cc2cc1Cc1cncc2cc(OC)c(OC)cc12 [Compound 113, 3-((6,7-dimethoxyisoquinolin-4-yl)methyl)-N-ethyl-6-methoxyquinolin-2-amine dihydrochloride]"
7,13,"COc1cc2c(Cc3ccc4cccc(N)c4n3)cnc(C)c2cc1OC [Compound 152, 2-((6,7-dimethoxy-1-methylisoquinolin-4-yl)methyl)quinolin-8-amine]"
8,11,"CCc1ncc(Cc2ccc3cccc(O)c3n2)c2cc(OC)c(OC)cc12 [Compound 83, 2-((1-ethyl-6,7-dimethoxyisoquinolin-4-yl)methyl)quinolin-8-ol]"
9,4.3,"COc1cc2c(Cc3ccc4nc(C)ccc4c3)cnc(C)c2cc1OC [Compound 105, 6-((6,7-dimethoxy-1-methylisoquinolin-4-yl)methyl)-2-methylquinoline dihydrochloride]"
10,3.5,"CCc1ncc(Cc2cnc3ccc(NC(=O)C(N)=O)cc3c2)c2cc(OC)c(OC)cc12 [Compound 98, N^1-(3-((1-ethyl-6,7-dimethoxyisoquinolin-4-yl)methyl)quinolin-6-yl)oxalamide]"
